Molecules are shown by their SMILES. pIC50: −log10 of the molar value.

Sequence of Tie-2 kinase enzyme (Q02763 23-1124): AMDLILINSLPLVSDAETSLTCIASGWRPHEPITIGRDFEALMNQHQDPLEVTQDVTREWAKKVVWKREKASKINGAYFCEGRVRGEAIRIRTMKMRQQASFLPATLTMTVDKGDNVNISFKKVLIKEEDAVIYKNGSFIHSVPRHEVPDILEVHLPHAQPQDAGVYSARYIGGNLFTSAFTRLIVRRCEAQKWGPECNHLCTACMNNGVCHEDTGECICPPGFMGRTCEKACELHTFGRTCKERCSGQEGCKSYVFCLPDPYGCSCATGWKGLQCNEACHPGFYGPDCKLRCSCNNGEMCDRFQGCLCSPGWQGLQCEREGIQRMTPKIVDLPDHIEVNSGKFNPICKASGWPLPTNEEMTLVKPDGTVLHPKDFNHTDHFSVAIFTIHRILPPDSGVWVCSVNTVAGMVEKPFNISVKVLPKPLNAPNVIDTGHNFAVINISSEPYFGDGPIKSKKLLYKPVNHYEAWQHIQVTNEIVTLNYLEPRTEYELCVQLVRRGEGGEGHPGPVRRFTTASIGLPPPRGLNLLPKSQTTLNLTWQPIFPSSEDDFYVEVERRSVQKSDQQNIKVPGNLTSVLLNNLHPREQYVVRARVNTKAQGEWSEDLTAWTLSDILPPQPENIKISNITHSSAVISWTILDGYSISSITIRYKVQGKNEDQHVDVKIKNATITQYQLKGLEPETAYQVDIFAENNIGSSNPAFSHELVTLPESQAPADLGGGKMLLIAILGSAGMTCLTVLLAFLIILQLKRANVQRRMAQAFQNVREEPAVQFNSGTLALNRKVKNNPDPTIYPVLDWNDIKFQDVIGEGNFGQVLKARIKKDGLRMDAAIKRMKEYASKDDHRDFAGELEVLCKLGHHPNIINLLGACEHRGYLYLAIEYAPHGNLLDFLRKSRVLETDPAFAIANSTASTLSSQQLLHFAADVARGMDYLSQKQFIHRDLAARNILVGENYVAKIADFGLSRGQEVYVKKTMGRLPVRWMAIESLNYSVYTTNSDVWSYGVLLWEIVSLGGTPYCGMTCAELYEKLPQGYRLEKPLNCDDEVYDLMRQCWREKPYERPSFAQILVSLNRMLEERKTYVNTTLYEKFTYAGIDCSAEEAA

For the assay, the target named is Tie-2 kinase enzyme (Homo sapiens, UniProt Q02763). In words: Tie-2 Homogenous Time Resolved Flourescent (HTRF) kinase assay. To be noted: 0.01 mM ATP, about 90 minutes at RT; read-out: IC50 for the inhibition of Tie-2 as measured by the HTRF assay. The format is biochemical. The procedure:
IC50's for the inhibition of the Tie-2 kinase enzyme for individual compounds were measured using an HTRF assay, utilizing the following procedure:
In a 96 well plate (available from Costar Co.) was placed 1 uL of each test and standard compound per well in 100% DMSO having a 25 uM final compound concentration (3-fold, 10 point dilution). To each well was added 20 uL of a reaction mix formed from […], 0.05% BSA (0.1 uL; from a 10% stock solution available from Sigma-Aldrich Co.), 0.002 mM of BLC HER-2 KKK (Biotinylated Long chain peptide; 0.04 uL; from a […] stock solution), 0.01 mM concentration of ATP (0.02 uL; commercially available from Sigma-Aldrich Co.) and the remaining solution was water (15.84 uL) to make to a total volume of 20 uL/well.
The reaction was initiated in each well by adding 20 uL per well of an enzyme preparation consisting of a 50 mM concentration of Hepes (1.0 uL; from a 1000 mM stock solution commercially available from Gibco Co.), 0.05% concentration of BSA (0.1 uL), 4 mM of DTT (0.08 uL; from a 1000 mM stock solution available from Sigma-Aldrich Co.), a 2.4×10^−7 concentration of Tie-2 (0.02 uL, from a 4 mM concentration stock), with the remaining volume being water (18.8 uL) to dilute the enzyme preparation to a total volume of 20 uL. The plate was incubated for about 90 minutes at RT. After incubation, a 160 uL of a filtered detection mixture, prepared from 0.001 mg/ml of SA-APC (0.0765 uL; available as a 2.09 mg/ml stock solution from Gibco), 0.03125 nM concentration of Eu-Ab (0.1597 uL; available in a 31.3 nM stock solution from Gibco), with the remaining volume being Detection buffer (159.73 uL), was added to each well to stop the reaction therein. The plate was then allowed to equilibrate for about 3 hr and read on a Ruby Star fluorescent reader (available from BMG Technologies, Inc.) using a 4 parameter fit using activity base to calculate the corresponding IC50's for the test and standard compounds in each well.
For orientation: Time-resolved FRET reads energy transfer from a long-lived donor to a nearby acceptor.
Turning to `Cc1ccc(C(=O)Nc2cccc(C(C)C)c2)cc1Oc1ncccc1-c1cn[nH]c1` [Example 1, 3-(3-(1H-pyrazol-4-yl)pyridin-2-yloxy)-N-(3-isopropylphenyl)-4-methylbenzamide], the pIC50 (usually −log10 of the IC50, conventionally taken in molar units) is at least 7.00.

Regarding `CN(C)CCCN(C)c1ccc(C(F)(F)F)cc1NC(=O)c1cc(Oc2ncccc2-c2cnco2)ccc1F` [Example 2, N-(2-((3-(dimethylamino)propyl)(methyl)amino)-5-(trifluoromethyl)phenyl)-2-fluoro-5-(3-(oxazol-5-yl)pyridin-2-yloxy)benzamide], the pIC50 is at least 6.30.

For the compound `Cc1ccc(C(=O)Nc2cccc(C(C)C)c2)cc1Nc1ncccc1-c1nnn[nH]1` [Example 3, 3-(3-(1H-tetrazol-5-yl)pyridin-2-ylamino)-N-(3-isopropylphenyl)-4-methylbenzamide], the negative-log IC50 (pIC50) is at least 6.00.

As to `Cc1ccc(C(=O)Nc2cccc(C(C)C)c2)cc1Oc1ncccc1-c1cnn(Cc2ccccc2)c1` [Example 10, 3-(3-(1-benzyl-1H-pyrazol-4-yl)pyridin-2-yloxy)-N-(3-isopropylphenyl)-4-methylbenzamide], the negative-log IC50 (pIC50) is at least 6.30.

As for `COc1ccc(C2CCCCC2)cc1NC(=O)c1ccc(C)c(Oc2ncccc2-c2cn[nH]c2)c1` [Example 11, 3-(3-(1H-pyrazol-4-yl)pyridin-2-yloxy)-N-(5-cyclohexyl-2-methoxyphenyl)-4-methylbenzamide], the negative logarithm of the IC50 (pIC50) is at least 7.00.

With `Cc1ccc(C(=O)Nc2cccc(C(C)C)c2)cc1Nc1ncccc1-c1nnn[nH]1` [Example 12, 3-(3-(1H-tetrazol-5-yl)pyridin-2-ylamino)-N-(3-isopropylphenyl)-4-methylbenzamide], the negative logarithm of the IC50 (pIC50) is at least 6.30.

For `Cc1ccc(C(=O)Nc2cccc(C(C)C)c2)cc1Oc1ncccc1-c1cnco1` [Example 14, N-(3-isopropylphenyl)-4-methyl-3-(3-(oxazol-5-yl)pyridin-2-yloxy)benzamide], the pIC50 is at least 7.00.

In the case of `Cc1ccc(C(=O)Nc2cccc(C(F)(F)F)c2)cc1Oc1ncccc1-c1ccn[nH]1` [Example 15, 3-(3-(1H-pyrazol-5-yl)pyridin-2-yloxy)-4-methyl-N-(3-(trifluoromethyl)phenyl)benzamide], the pIC50 is at least 6.30.

For the compound `O=C(Nc1cccc(OC(F)(F)F)c1)c1cc(Oc2ncccc2-c2cnco2)ccc1F` [Example 16, 2-fluoro-5-(3-(oxazol-5-yl)pyridin-2-yloxy)-N-(3-(trifluoromethoxy)phenyl)benzamide], the pIC50 was at least 6.00.

As for `Cc1ccc(C(=O)Nc2cccc(C(C)C)c2)cc1Oc1ccccc1-c1cnco1` [Example 18, N-(3-isopropylphenyl)-4-methyl-3-(2-(oxazol-5-yl)phenoxy)benzamide], the negative logarithm of the IC50 (pIC50) is at least 7.00.

Take `Cc1ccc(C(=O)Nc2cc(C(F)(F)F)ccc2N(C)CCCN(C)C)cc1Oc1ccccc1-c1cnco1` [Example 19, N-(2-((3-(dimethylamino)propyl)(methyl)amino)-5-(trifluoromethyl)phenyl)-4-methyl-3-(2-(oxazol-5-yl)phenoxy)benzamide]: the pIC50 was at least 6.30.

As to `Cc1ccc(C(=O)Nc2cc(C(F)(F)F)ccc2N(C)CCCN(C)C)cc1Oc1ncccc1-c1cnco1` [Example 20, N-(2-((3-(dimethylamino)propyl)(methyl)amino)-5-(trifluoromethyl)phenyl)-4-methyl-3-(3-(oxazol-5-yl)pyridin-2-yloxy)benzamide], the pIC50 is at least 6.30.

Turning to `Cc1ccc(C(=O)Nc2cccc(C(F)(F)F)c2)cc1Oc1ncccc1-c1cnco1` [Example 22, 4-methyl-3-(3-(oxazol-5-yl)pyridin-2-yloxy)-N-(3-(trifluoromethyl)phenyl)benzamide], the pIC50 was at least 7.00.

On to `O=C(Nc1ccc(Oc2ncccc2-c2cn[nH]c2)cc1)c1ccccc1Nc1ccccc1` [Example 23, N-(4-(3-(1H-pyrazol-4-yl)pyridin-2-yloxy)phenyl)-2-(phenylamino)benzamide], for which the negative-log IC50 (pIC50) is at least 6.00.

The record behind these values is patent US8822514B2, “Multi-cyclic compounds and methods of use” (Amgen Inc., priority 2006, dated 2014).
